Data on one molecule can be found in patent publication US7910626B2, “Use of S1P receptor agonists in heart diseases” (Novartis AG, priority 2002, dated 2011).

One data set concerns chronic heart failure. Briefly: Chronic heart failure in rabbits after large myocardial infarction. Format: in vivo. To be noted: heart failure induced by large myocardial infarction, i.v. at a dose of from 0.1 to 10 mg/kg. As for the experimental part:
The effect of a S1P receptor agonist, e.g. a compound of formula I on chronic heart failure is tested in rabbits where heart failure is induced as a consequence of a large myocardial infarction (R P. Hof et al. J. Cardiovasc. Pharmacol., 1991, 18,361-368). The changes of atrial natriuretic factor or baroflex sensitivity are a reliable indicator of the status of the heart failure in this animal model.

Data set [1] in a line: Acute toxicity p.o. in rats. To be noted: rat, in vivo, po. As to the method: (§1) S1P receptor agonists are well tolerated at dosages required for use in accordance with the present invention. For example, FTY720 has an acute LD50 >10 mg/kg p.o. in rats and monkeys.
Data set [2] is described as follows: Acute toxicity p.o. in monkeys. To be noted: monkey, in vivo, po. As for the experimental part:
as §1

For `CCCCCCCCc1ccc(CCC(N)(CO)CO)cc1` [Compound A, 2-amino-2-[2-(4-octylphenyl)ethyl]propane-1,3-diol], in the data set with chronic heart failure, the “effect on the heart failure” value was “beneficial effect”. The median lethal dose (LD50) in data set [1] and in data set [2] was more than 10 mg/kg throughout.

The LD50 is the dose expected to kill half of the subjects tested. Read a high LD50 as a less toxic substance.
